# Measured values from ChEMBL document CHEMBL5329202, “New aryl-/heteroarylpiperazine derivatives of 1,7-dimethyl-8,9-diphenyl-4-azatricyclo[5.2.1.02,6]dec-8-ene-3,5,10-trione: Synthesis and preliminary studies of biological activities” (Bioorg Med Chem, 2023).
# What was measured:
# K562 [1] = test: Induction of apoptosis in human K562 cells assessed as necrotic cells at IC50 incubated for 72 hrs by Annexin V-FITC/PI staining based flow cytometric analysis (reference value: 7.1 %); assay type: functional
# K562 [2] = test: Cytotoxicity against human K562 cells assessed as cell growth inhibition measured after 72 hrs by MTT assay; assay type: functional, cell-based; conditions: K562, 72 h
# [3] = Selectivity index, ratio of IC50 for cytotoxicity against human HMEC-1 cells to IC50 for cytotoxicity against human K562 cells; assay type: toxicity, cell-based; conditions: HMEC-1 cells and K562 cells, read-out: Ratio IC50
# HMEC-1 [4] = test: Induction of apoptosis in human HMEC-1 cells assessed as viable cells at IC50 incubated for 72 hrs by Annexin V-FITC/PI staining based flow cytometric analysis (reference value: 90.6 %); assay type: functional
# HCT-116 [5] = test: Antiproliferative activity against human HCT-116 cells assessed as reduction in cell viability at IC50 measured after 72 hrs by trypan blue dye based assay relative to control; assay type: functional
# HCT-116 [6] = test: Induction of apoptosis in human HCT-116 cells assessed as late apoptotic cells at IC50 incubated for 72 hrs by Annexin V-FITC/PI staining based flow cytometric analysis (reference value: 1.6 %); assay type: functional
# [7] = Selectivity index, ratio of IC50 for cytotoxicity against human HMEC-1 cells to IC50 for cytotoxicity against human HCT-116 cells; assay type: toxicity, cell-based; conditions: HMEC-1 cells and HCT-116 cells, read-out: Ratio IC50
# PC-3 = test: Cytotoxicity against human PC-3 cells assessed as cell growth inhibition measured after 72 hrs by MTT assay; assay type: functional, cell-based; conditions: PC-3, 72 h
# HCT-116 [8] = test: Cytotoxicity against human HCT-116 cells assessed as cell growth inhibition measured after 72 hrs by MTT assay; assay type: functional, cell-based; conditions: HCT-116, 72 h
# K562 [9] = test: Induction of apoptosis in human K562 cells assessed as increase in caspase-3/7 activity at IC50 incubated for 24 hrs by Glo assay relative to control; assay type: functional
# [10] = Selectivity index, ratio of IC50 for cytotoxicity against human HMEC-1 cells to IC50 for cytotoxicity against human SW480 cells
# K562 [11] = test: Antiproliferative activity against human K562 cells assessed as reduction in cell viability at IC50 measured after 72 hrs by trypan blue dye based assay relative to control; assay type: functional
# [12] = biological target: T1, 5-hydroxytryptamine receptor 1A (Rattus norvegicus, UniProt P19327); test: Agonist activity at Sprague-Dawley rat hippocampal membrane 5-HT1A receptor assessed as stimulation of [35S]GTPgammaS binding measured after 90 mins by scintillation counter analysis; assay type: functional, cell membranes, Hippocampus
# T1 sequence (P19327 whole entry): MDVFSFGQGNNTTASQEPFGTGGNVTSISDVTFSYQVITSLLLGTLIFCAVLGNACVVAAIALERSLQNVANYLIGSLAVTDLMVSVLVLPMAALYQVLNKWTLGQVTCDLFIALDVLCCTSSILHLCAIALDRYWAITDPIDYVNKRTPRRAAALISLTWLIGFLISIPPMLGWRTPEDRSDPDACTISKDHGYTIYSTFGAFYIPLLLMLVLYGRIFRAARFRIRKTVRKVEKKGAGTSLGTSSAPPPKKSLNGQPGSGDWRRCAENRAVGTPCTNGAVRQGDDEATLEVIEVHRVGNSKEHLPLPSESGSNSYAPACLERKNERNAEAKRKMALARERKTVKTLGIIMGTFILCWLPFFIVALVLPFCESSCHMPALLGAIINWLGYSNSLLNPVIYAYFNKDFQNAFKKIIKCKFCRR
# [13] = Selectivity index, ratio of IC50 for cytotoxicity against human HMEC-1 cells to IC50 for cytotoxicity against human SW620 cells
# [14] = Selectivity index, ratio of IC50 for cytotoxicity against human HMEC-1 cells to IC50 for cytotoxicity against human PC-3 cells; assay type: toxicity, cell-based; conditions: HMEC-1 cells and PC-3 cells, read-out: Ratio IC50
# [15] = Selectivity index, ratio of IC50 for cytotoxicity against human HMEC-1 cells to IC50 for cytotoxicity against human MDA-MB-231 cells; assay type: toxicity, cell-based; conditions: HMEC-1 cells and MDA-MB-231 cells, read-out: Ratio IC50
# K562 [16] = test: Induction of apoptosis in human K562 cells assessed as early apoptotic cells at IC50 incubated for 72 hrs by Annexin V-FITC/PI staining based flow cytometric analysis (reference value: 1.3 %); assay type: functional
# HMEC-1 [17] = test: Induction of apoptosis in human HMEC-1 cells assessed as early apoptotic cells at IC50 incubated for 72 hrs by Annexin V-FITC/PI staining based flow cytometric analysis (reference value: 2.4 %); assay type: functional
# A549 = test: Cytotoxicity against human A549 cells assessed as cell growth inhibition measured after 72 hrs by MTT assay; assay type: functional, cell-based; conditions: A549, 72 h
# HMEC-1 [18] = test: Induction of apoptosis in human HMEC-1 cells assessed as necrotic cells at IC50 incubated for 72 hrs by Annexin V-FITC/PI staining based flow cytometric analysis (reference value: 2.4 %); assay type: functional
# HCT-116 [19] = test: Induction of apoptosis in human HCT-116 cells assessed as necrotic cells at IC50 incubated for 72 hrs by Annexin V-FITC/PI staining based flow cytometric analysis (reference value: 0.1 %); assay type: functional
# [20] = Cytotoxicity against human HMEC-1 cells assessed as cell growth inhibition measured after 72 hrs by MTT assay; assay type: toxicity, cell-based
# K562 [21] = test: Induction of apoptosis in human K562 cells assessed as late apoptotic cells at IC50 incubated for 72 hrs by Annexin V-FITC/PI staining based flow cytometric analysis (reference value: […]); assay type: functional
# SW-620 = test: Cytotoxicity against human SW620 cells assessed as cell growth inhibition measured after 72 hrs by MTT assay; assay type: functional, cell-based; conditions: SW-620, 72 h
# K562 [22] = test: Induction of apoptosis in human K562 cells assessed as viable cells at IC50 incubated for 72 hrs by Annexin V-FITC/PI staining based flow cytometric analysis (reference value: 89 %); assay type: functional
# [23] = Selectivity index, ratio of IC50 for cytotoxicity against human HMEC-1 cells to IC50 for cytotoxicity against human A549 cells; assay type: toxicity, cell-based; conditions: HMEC-1 cells and A549 cells, read-out: Ratio IC50
# MDA-MB-231 = test: Cytotoxicity against human MDA-MB-231 cells assessed as cell growth inhibition measured after 72 hrs by MTT assay; assay type: functional, cell-based; conditions: MDA-MB-231, 72 h
# K562 [24] = test: Antiproliferative activity against human K562 cells assessed as reduction in cell number at IC50 measured after 72 hrs by trypan blue dye based assay relative to control; assay type: functional; design: scale not given: the % may be the effect or the level left
# HMEC-1 [25] = test: Induction of apoptosis in human HMEC-1 cells assessed as late apoptotic cells at IC50 incubated for 72 hrs by Annexin V-FITC/PI staining based flow cytometric analysis (reference value: 4.7 %); assay type: functional
# D(2) dopamine receptor = D(2) dopamine receptor (Rattus norvegicus, UniProt P61169); test: Antagonist activity at Sprague-Dawley rat striatum membrane D2 receptor assessed as inhibition of dopamine stimulated [35S]GTPgammaS binding measured after 90 mins by scintillation counter analysis; assay type: functional, cell membranes
# HMEC-1 [26] = test: Antiproliferative activity against human HMEC-1 cells assessed as reduction in cell viability at IC50 measured after 72 hrs by trypan blue dye based assay relative to control; assay type: toxicity; conditions: hmec-1, 72 h
# HepG2 = test: Cytotoxicity against human HepG2 cells assessed as cell growth inhibition measured after 72 hrs by MTT assay; assay type: functional, cell-based; conditions: HepG2, 72 h
# Sequence of D(2) dopamine receptor (P61169 whole entry): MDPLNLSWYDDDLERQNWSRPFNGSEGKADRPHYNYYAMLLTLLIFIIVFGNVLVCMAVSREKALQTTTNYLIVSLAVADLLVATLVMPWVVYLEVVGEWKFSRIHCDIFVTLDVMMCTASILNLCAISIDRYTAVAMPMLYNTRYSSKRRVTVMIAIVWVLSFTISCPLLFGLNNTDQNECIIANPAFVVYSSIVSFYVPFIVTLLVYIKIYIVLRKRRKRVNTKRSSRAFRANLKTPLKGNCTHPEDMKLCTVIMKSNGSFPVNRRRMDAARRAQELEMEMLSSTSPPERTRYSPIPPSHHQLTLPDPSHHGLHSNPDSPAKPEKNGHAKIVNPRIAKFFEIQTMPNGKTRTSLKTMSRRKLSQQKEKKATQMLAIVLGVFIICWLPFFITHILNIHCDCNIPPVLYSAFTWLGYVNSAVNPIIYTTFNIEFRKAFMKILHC
structure (smiles),measurement,setting,value
CC12C(=O)C(C)(C(c3ccccc3)=C1c1ccccc1)C1C(=O)N(CCCCN3CCN(c4cccc(Cl)c4)CC3)C(=O)C12 (centres undefined),Activity,K562 [1],9.9%
same,IC50,K562 [2],4.38 µM
same,selectivity ratio,[3],5.01
same,Activity,HMEC-1 [4],86.8%
same,Activity,HCT-116 [5],16%
same,Activity,HCT-116 [6],2.5%
same,selectivity ratio,[7],3.54
same,IC50,PC-3,8.61 µM
same,IC50,HCT-116 [8],6.19 µM
same,Activity,K562 [9],74%
same,Ratio IC50,[10],2.64
same,Activity,K562 [11],30%
same,EC50,[12],0.6 µM
same,Ratio IC50,[13],1.38
same,selectivity ratio,[14],2.55
same,selectivity ratio,[15],0.54
same,Activity,K562 [16],5.2%
same,Activity,HMEC-1 [17],3.5%
same,IC50,A549,25.6 µM
same,Activity,HMEC-1 [18],2%
same,Activity,HCT-116 [19],0.3%
same,IC50 at 72 h,[20],21.9 µM
same,Activity,K562 [21],25.4%
same,IC50,SW-620,15.9 µM
same,Activity,K562 [22],59.5%
same,selectivity ratio,[23],0.86
same,IC50,MDA-MB-231,40.6 µM
same,Activity,K562 [24],82%
same,Activity,HMEC-1 [25],7.8%
same,IC50,D(2) dopamine receptor,24.8 µM
same,Activity,HMEC-1 [26],Non-Toxic
same,IC50,HepG2,14.1 µM
CC12C(=O)C(C)(C(c3ccccc3)=C1c1ccccc1)C1C(=O)N(CCCCN3CCN(c4ncccn4)CC3)C(=O)C12 (centres undefined),Activity,K562 [1],7%
same,IC50,K562 [2],8.08 µM
same,selectivity ratio,[3],3.78
same,Activity,HMEC-1 [4],91.7%
same,Activity,HCT-116 [5],36%
same,Activity,HCT-116 [6],4.1%
same,selectivity ratio,[7],6.6
same,IC50,PC-3,20.4 µM
same,IC50,HCT-116 [8],4.63 µM
same,Activity,K562 [9],22%
same,Ratio IC50,[10],1.93
same,Activity,K562 [11],28%
same,EC50,[12],1.5 µM
same,Ratio IC50,[13],2.26
same,selectivity ratio,[14],1.49
same,selectivity ratio,[15],1.64
same,Activity,K562 [16],4%
same,Activity,HMEC-1 [17],4.6%
same,IC50,A549,18.1 µM
same,Activity,HMEC-1 [18],1.3%
same,Activity,HCT-116 [19],0.3%
same,IC50 at 72 h,[20],30.5 µM
same,Activity,K562 [21],11.7%
same,IC50,SW-620,13.5 µM
same,Activity,K562 [22],77.3%
same,selectivity ratio,[23],1.69
same,IC50,MDA-MB-231,18.7 µM
same,Activity,K562 [24],64%
same,Activity,HMEC-1 [25],2.4%
same,IC50,D(2) dopamine receptor,22.6 µM
same,Activity,HMEC-1 [26],Non-Toxic
same,IC50,HepG2,16.7 µM
